Assay results reported in patent US20250152605A1, “METHOD AND DRUG FOR TREATING NEURONAL CEROID LIPOFUSCINOSIS” (priority 2021, published 2025).

Legend:
[1] = system: mice's neurons; test: qRT-PCR of autophagy-related and lysosomal genes in mouse neurons; type: cell-based; settings: 6 hours
Procedure: (§1) The cells in the cell-culture dish were collected, extracted using AxyPrep Total RNA Mini Prep Kit or Qiagen AxyPrep Total RNA Mini Prep Kit, and the extracted RNA concentration is measured using Nanodrop; the extracted mRNA was reverse transcribed into cDNA by Transgen's EasyScript® One-Step gDNA Removal and cDNA Synthesis SuperMix and the primers used for reverse transcription were Oligo dT primers; the completion of reverse transcription followed by qRT-PCR reaction through PerfectStart™ Green qPCR SuperMix to detect the expression of the target gene; the qRT-PCR reaction was performed on the Bio-Rad CFX96 Real-Time PCR system; see Table 2 and Table 3 for the 20 μL qRT-PCR reaction system and reaction procedures; data analysis was performed in Prism 7 software using the 2^−ΔΔCt process with GAPDH as internal reference for relative quantification of the expression of the target gene.
(§2) After treating primary (a) neural stem cells and (b) neurons of Cln3 KO) mice for 6 hours, the mRNA was extracted from the cells, reverse-transcribed into cDNA, and transcription levels of autophagy- and lysosome-related genes were detected using qRT-PCR (n=3).
(§3) It was speculated from this that the known target FXR of Compound G was expressed at low or no levels in neural lineage cells. […]

[2] = system: mouse neural stem cells; test: qRT-PCR of autophagy and lysosome-related genes in mouse neural stem cells; type: cell-based; settings: 6 hours
Procedure: as §1, §2, §3

[3] = system: KEAP1-knockdown CLN3^Δex7/8 human neurons; test: Lysotracker staining of KEAP1-knockdown CLN3^Δex7/8 human neurons; type: cell-based; settings: added to KEAP1-knockdown CLN3^Δex7/8 human neurons
Procedure: shRNA knockdown experiments of genes such as CLN3 and KEAP1 were conducted in induced neural stem cells and neurons, with specific steps as follows: the neural stem cells were planted into a desired cell culture plate to a cell density of about 50% or the neural stem cells were differentiated into human neurons in the cell culture plate according to experimental requirements; the shRNA lentiviral plasmids of CLN3 and KEAP1 genes and the control lentiviral plasmid expressing non-target sequences were selected from the MISSIOH human shRNA library of Sigma Aldrich, and the sequences were shown in Table 6; Lentiviruses was packaged in 10 cm cell culture plates and virus-containing supernatant was collected by filtration according to the method described above; the supernatant and lentivirus concentrate (40% PEG-8000 and 1.2M sodium chloride dissolved in dPBS solution, pH˜ 7.0) were mixed in a volume ratio of 1:3, and incubated overnight at 4° C. with slow rotation; centrifugation at 13000 g for 30 minutes at 4° C., and the supernatant was discarded, and the pellet was resuspended in 1 mL of fresh cell culture medium and added to the target cells; after 8 hours of infection, the virus was aspirated and fresh cell culture medium was added; 48 hours after infection, 1.5 μg/mL puromycin was added for selection for 72 hours, and the surviving cells were used for subsequent experiments. […]

[4] = system: CLN3^Δex7/8 neural stem cells; test: Annexin V and propidium iodide apoptosis staining, flow cytometry; type: cell-based, human; settings: treatment for 48 hours
Procedure: In analyzing the mean fluorescence intensity of neural stem cells and neuronal staining or single cell establishment of NRK cells, flow cytometry was used: the cell medium was aspirated off, after wash with dPBS once, the digestive enzyme corresponding to the cell type was added to digest into single cells; the supernatant was removed by centrifugation, and the cells were resuspended with 1 mL of fresh medium; the cell suspension with filtered through 40 μm filter membrane and the single cell filtrate was collected; the single cell filtrate was transferred to a flow tube and analyzed or sorted using BD FACS Aria III; in the analysis, the fluorescence intensity of 1×10^4 cells for each sample was analyzed to obtain the mean fluorescence intensity (MFI); for sorting, cells were received in 96 well plates with medium, one cell per well to establish a cell line.
Then, whether compound G causes cytotoxicity in neural stem cells was examined. Cell apoptosis was detected after compound G treatment with Annexin V and propidium iodide (PI) staining and analyzed with flow cytometry. Annexin V positive and PI negative represented early apoptotic cells, while Annexin V positive and PI positive represented late apoptotic cells.

[5] = system: CLN3^Δex7/8 human neural stem cells; test: Transcriptome sequencing (RNA-seq) of human neural stem cells; type: cell-based; settings: 6 μM, 6 hours
Procedure: In order to detect the effect of Compound G on treated cells, transcriptome sequencing was performed on neural stem cells treated with Compound G, with specific steps as follows: CLN3^Δex7/8 human neural stem cells were seeded into 2% Matrigel-coated 6-well cell plates to a cell density of 80%; fresh cell culture medium containing 6 μM Compound G or an equal volume of DMSO was added, and each treatment condition for two biological replicates; the neural stem cells were incubated in a 37° C. cell culture incubator for 6 hours; the cell culture medium was aspirated, following by washing once with dPBS, and then intracellular RNA was extracted by Qiagen RNeazy Mini Plus Kit; the extracted RNA was sent to ANNOROAD for RNA quality testing first. The purity of RNA was tested using a Nanophotometer spectrophotometer; the concentration of RNA was tested using a Qubit 3.0 Flurometer; the integrity of the RNA was tested using the Aligent 2100 RNA Nano 6000 Assay kit; 2 μg of RNA was taken from each qualified sample for library construction and quantified using Qubit 3.0 Flurometer.
After diluting the library-building samples to 1 ng/μL, the Aligent 2100 RNA Nano 6000 Assay kit and qPCR were used for quality detection; Illumina's Hiseq PE Cluster kit was used for clustering, and the Hiseq 2500 sequencing platform was used for paired-end sequencing to obtain 150 bp paired-end sequencing reads; FastQC software was used to evaluate the quality of the raw data obtained from sequencing, then TrimGalore was used to remove adapter sequences and low-quality sequences, and filtered data was obtained for subsequent analysis.
Comparation between filtered data and human reference genome hg38 was carried with HISAT2, resulting in Bam file, and the number of counts aligned to each gene was counted by FeatureCount, with gtf (GRCh38.92) file provided by Ensembl as annotation. Ensembl IDs were converted to gene names by BiomaRt R package. The genes with fold change>2 and corrected p<0.05 were screened as differential genes, through differential genes expression analysis with DESeq2 software.
In order to explore the mechanism of Compound G in human neural stem cells, transcriptome sequencing experiments were conducted on wild-type human neural stem cells, CLN3^Δex7/8 human neural stem cells and CLN3^Δex7/8 human neural stem cells after treated with Compound G for 6 hours, and differentially expressed genes were analyzed. […] CLN3^Δex7/8 human neural stem cells treated and untreated with Compound G were clustered together (FIG. 29(b, c)). […] With regard to the RNA sequencing results, the effects of Compound G on the transcription level of TFEB, autophagy-related genes and lysosomal genes were also analyzed.

C/C=C1\C(=O)C[C@H]2[C@@H]3CCC4=CC(=O)CC[C@]4(C)[C@H]3CC[C@]12C [Compound G, (Z)-guggulsterone]
transcription level of the autophagy-related genes or the lysosomal genes [1]: did not significantly increase
expression level of the autophagy and lysosome-related genes [2]: no significant change
Lysotracker average fluorescence intensity [3]: could not further increase
proportions of apoptotic cells (Annexin V / PI) [4]: did not significantly change the proportions of apoptotic cells
expression levels of NQO1, LPCAT1 and HLA-E [5]: all increased
gene expression profile (PCA analysis) [5]: did not produce a significant impact
number of differential genes (fold change >2 and corrected p<0.05) [5]: 3
differential expression folds of NRF2 downstream genes other than NQO1 ([5]; RNA sequencing): less than 2
expressions of multiple NRF2 downstream genes ([5]; RNA sequencing): elevated
transcription level of TFEB and most autophagy-related genes and lysosomal genes ([5]; RNA sequencing): no significant effects
